Test results taken from PubChem BioAssay AID2060627 (Molecular Pharmacology Branch, DTP, NCI, 2025).
Values joined by “and” are separate entries in the source; they are usually repeats but may differ in a detail not shown here. Equal entries are not always repeated.

Test system: 156681-154-R-J1-PDC complex spheroid viability
Experiment: Anticancer human tumor 156681-154-R-J1-PDC patient-derived melanoma cell line growth inhibition [CLK]
Conditions: for viability, T/C: stronger effect = lower value
Outline: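 Multi-cell-type spheroids combined patient-derived tumor cells with HUVEC endothelial cells and human mesenchymal stem cells. Paired agents were dosed in half-log steps down from about clinical Cmax, or from 10 microM where Cmax was unknown.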

[1] = curve of first compound, second compound 0.0316 µM
[2] = curve of first compound, second compound 0.1 µM
[3] = curve of first compound, second compound 0.316 µM
[4] = curve of first compound, second compound 1 µM
[5] = curve of first compound, second compound 3.16 µM
[6] = curve of first compound, second compound 10 µM
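Note: spheroids exposed to the agents for seven days.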
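Throughout, for viability, T/C: 100% = DMSO vehicle control viability.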

In the case of NC(=O)C(=Cn1cnc(-c2cc(C(F)(F)F)cc(C(F)(F)F)c2)n1)c1cncnc1 + CN1CCN(c2cc(C(=O)Nc3cc4cc(-c5cnn(C)c5)ccc4cn3)ccn2)CC1, the IC50 [1] is reported as 0.061 µM, the IC50 [2] is reported as 0.0313 µM and the IC50 [3] is reported as less than 0.00949 µM. For the same compound, the IC50 [4] was less than 0.00949 µM, the IC50 [5] was less than 0.00949 µM and the IC50 [6] was less than 0.00949 µM. For the same compound, the viability, T/C (second compound 0.0316 µM, first compound 0.00949 µM) was 93.5%, the viability, T/C (second compound 0.0316 µM, first compound 0.03 µM) was 63.4% and the viability, T/C (second compound 0.0316 µM, first compound 0.0949 µM) was 45.5%. The viability, T/C (second compound 0.0316 µM, first compound 0.3 µM) was 13.1%, the viability, T/C (second compound 0.0316 µM, first compound 0.949 µM) was 4.9% and the viability, T/C (second compound 0.0316 µM, first compound 3 µM) was 3.07%. The viability, T/C (second compound 0.1 µM, first compound 0.00949 µM) was 64.3%, the viability, T/C (second compound 0.1 µM, first compound 0.03 µM) was 50.4% and the viability, T/C (second compound 0.1 µM, first compound 0.0949 µM) was 26.6%. For the same compound, the viability, T/C (second compound 0.1 µM, first compound 0.3 µM) was 6.93%, the viability, T/C (second compound 0.1 µM, first compound 0.949 µM) was 2.72% and the viability, T/C (second compound 0.1 µM, first compound 3 µM) was 1.03%. The viability, T/C (second compound 0.316 µM, first compound 0.00949 µM) was 10.8%, the viability, T/C (second compound 0.316 µM, first compound 0.03 µM) was 8.6% and the viability, T/C (second compound 0.316 µM, first compound 0.0949 µM) was 1.88%. It also gave a viability, T/C (second compound 0.316 µM, first compound 0.3 µM) of 0.07%, a viability, T/C (second compound 0.316 µM, first compound 0.949 µM) of 1.67% and a viability, T/C (second compound 0.316 µM, first compound 3 µM) of 1.86%. For the same compound, the viability, T/C (second compound 1 µM, first compound 0.00949 µM) was 0.14%, the viability, T/C (second compound 1 µM, first compound 0.03 µM) was 0.33% and the viability, T/C (second compound 1 µM, first compound 0.0949 µM) was 0.11%. The viability, T/C (second compound 1 µM, first compound 0.3 µM) was 0.39%, the viability, T/C (second compound 1 µM, first compound 0.949 µM) was 2.63% and the viability, T/C (second compound 1 µM, first compound 3 µM) was 0.65%. The viability, T/C (second compound 3.16 µM, first compound 0.00949 µM) was 0.07%, the viability, T/C (second compound 3.16 µM, first compound 0.03 µM) was 2.18% and the viability, T/C (second compound 3.16 µM, first compound 0.0949 µM) was 2.61%. For the same compound, the viability, T/C (second compound 3.16 µM, first compound 0.3 µM) was 1.32%, the viability, T/C (second compound 3.16 µM, first compound 0.949 µM) was 1.52% and the viability, T/C (second compound 3.16 µM, first compound 3 µM) was 0.84%. For the same compound, the viability, T/C (second compound 10 µM, first compound 0.00949 µM) was 0.07%, the viability, T/C (second compound 10 µM, first compound 0.03 µM) was 1.56% and the viability, T/C (second compound 10 µM, first compound 0.0949 µM) was 1.25%. For the same compound, the viability, T/C (second compound 10 µM, first compound 0.3 µM) was 2.65%, the viability, T/C (second compound 10 µM, first compound 0.949 µM) was 2.11% and the viability, T/C (second compound 10 µM, first compound 3 µM) was 0.95%.

O=c1[nH]cc(F)c(=O)[nH]1 + CNC(=O)c1ccc(Nc2nc(OC3CCCC3)c3c(-c4ccc5nc(C)oc5c4)c[nH]c3n2)c(OC)c1 showed an IC50 [1] of 7.95 µM, an IC50 [2] of 5.5 µM and an IC50 [3] of 3.42 µM. The IC50 [4] was 4.12 µM, the IC50 [5] was less than 0.0316 µM and the IC50 [6] was less than 0.0316 µM. The viability, T/C (second compound 0.0316 µM, first compound 0.0316 µM) was 96.6%, the viability, T/C (second compound 0.0316 µM, first compound 0.1 µM) was 99% and the viability, T/C (second compound 0.0316 µM, first compound 0.316 µM) was 91.9%. The viability, T/C (second compound 0.0316 µM, first compound 1 µM) was 95.9%, the viability, T/C (second compound 0.0316 µM, first compound 3.16 µM) was 86.9% and the viability, T/C (second compound 0.0316 µM, first compound 10 µM) was 40.8%. It also gave a viability, T/C (second compound 0.1 µM, first compound 0.0316 µM) of 63.9%, a viability, T/C (second compound 0.1 µM, first compound 0.1 µM) of 79.2% and a viability, T/C (second compound 0.1 µM, first compound 0.316 µM) of 74.4%. The viability, T/C (second compound 0.1 µM, first compound 1 µM) was 74.3%, the viability, T/C (second compound 0.1 µM, first compound 3.16 µM) was 59.6% and the viability, T/C (second compound 0.1 µM, first compound 10 µM) was 39.7%. The viability, T/C (second compound 0.316 µM, first compound 0.0316 µM) was 78.6%, the viability, T/C (second compound 0.316 µM, first compound 0.1 µM) was 75.2% and the viability, T/C (second compound 0.316 µM, first compound 0.316 µM) was 73.4%. For the same compound, the viability, T/C (second compound 0.316 µM, first compound 1 µM) was 60.7%, the viability, T/C (second compound 0.316 µM, first compound 3.16 µM) was 53.8% and the viability, T/C (second compound 0.316 µM, first compound 10 µM) was 30.6%. For the same compound, the viability, T/C (second compound 1 µM, first compound 0.0316 µM) was 70.7%, the viability, T/C (second compound 1 µM, first compound 0.1 µM) was 46.3% and the viability, T/C (second compound 1 µM, first compound 0.316 µM) was 58.2%. The viability, T/C (second compound 1 µM, first compound 1 µM) was 52.7%, the viability, T/C (second compound 1 µM, first compound 3.16 µM) was 62.2% and the viability, T/C (second compound 1 µM, first compound 10 µM) was 23.6%. The viability, T/C (second compound 3.16 µM, first compound 0.0316 µM) was 49.7%, the viability, T/C (second compound 3.16 µM, first compound 0.1 µM) was 42.3% and the viability, T/C (second compound 3.16 µM, first compound 0.316 µM) was 47.9%. The viability, T/C (second compound 3.16 µM, first compound 1 µM) was 43.8%, the viability, T/C (second compound 3.16 µM, first compound 3.16 µM) was 35% and the viability, T/C (second compound 3.16 µM, first compound 10 µM) was 19.8%. It also gave a viability, T/C (second compound 10 µM, first compound 0.0316 µM) of 51%, a viability, T/C (second compound 10 µM, first compound 0.1 µM) of 40.5% and a viability, T/C (second compound 10 µM, first compound 0.316 µM) of 41.2%. The viability, T/C (second compound 10 µM, first compound 1 µM) was 45.4%, the viability, T/C (second compound 10 µM, first compound 3.16 µM) was 41.2% and the viability, T/C (second compound 10 µM, first compound 10 µM) was 20.1%.

CC1(C)CCC(CN2CCN(c3ccc(C(=O)NS(=O)(=O)c4ccc(NCC5CCOCC5)c([N+](=O)[O-])c4)c(Oc4cnc5[nH]ccc5c4)c3)CC2)=C(c2ccc(Cl)cc2)C1 was tested, and the viability, T/C (compound 0.0316 µM) was 112% and 88.5%, the viability, T/C (compound 0.1 µM) was 81.5% and 88.9% and the viability, T/C (compound 0.316 µM) was 88.7% and 90.4%. For the same compound, the viability, T/C (compound 1 µM) was 101% and 94.3%, the viability, T/C (compound 3.16 µM) was 68.2% and 77.1% and the viability, T/C (compound 10 µM) was 4.6% and 1.6%. For the same compound, the IC50 (curve of compound) was 4.39 µM and 4.78 µM.
